{"source": "patent US20260216055A1", "about": "“PLANT-MINERAL COMPOSITION FOR PH-DEPENDENT REGULATION OF TYPE 3 AQUAPORINS BASED ON ALOE BARBADENSIS” (SKYLAB AG, priority 2022, published 2026)", "key": {"[1]": {"conditions": "aloin in the extract composition; cited from earlier work"}, "Type 3 aquaporins (AQP3)": {"tested_on": "Type 3 aquaporins (AQP3)", "test": "Amount of Type 3 aquaporins in skin keratinocytes (HaCaT, sandwich ELISA)", "format": "cell-based", "conditions": "Table 7 experiment, 24 hours, Aloe extract 0.01%, trimethylglycine 1%, combination 0.01% + 1% equivalent to active ingredients, Hydagen Aquaporin 1% for the raw material", "from_the_text": "At the second stage, the definition of the amount of Type 3 aquaporins in keratinocytes after cultivation under the standard conditions, using the maximum non-toxic concentration of the component from the previous text. To determine the amount of AQP3, a commercially available test with the use of sandwich-type enzyme-linked immunoassay was used. Cells of HaCaT line with the density of 10^5 cells per well were introduced to the 96-well plate. On the next day, the cell medium was removed and replaced with DMEM+5% FBS 50 μL fresh cell medium to maintain cell growth. Next, 50 μL of samples of the composition under the invention was added, and cultivation was performed for 24 hours. In all the tests, 0.20% sodium chloride was added to the cell medium to regulate osmotic balance and to create physiological conditions to cultivate skin cells. The cultivating environment conditions were as follows: humidified atmosphere with 5% CO2 at 37° C. After incubation, cell supernatant was collected, and the amount of Type 3 aquaporins in skin keratinocytes was determined with ELISA method. […] Only after binding the 3 components of the reagent with AQP3 a stable color could be achieved, which was fixed with sulphuric acid and spectropotometrically detected at 450±10 nm wave length. […]"}, "HaCaT cells": {"tested_on": "HaCaT cells", "test": "Cytotoxicity estimation of the components on skin keratinocytes (MTT)", "format": "cell-based", "conditions": "24 hours", "from_the_text": "The study method is based on the definition of the amount of Type 3 aquaporins in epidermal keratinocytes after adding the components of the composition into HaCaT cell culture medium. At the first stage, cytotoxicity of the components is estimated depending on the concentration of components in the composition, be determining the number of survived cells according to MTT concentration with a color dilution method. Cells of HaCaT line were used in the amount of 10 000 cells per well in a 96-well plate. The testing facilities were as follows: humidified atmosphere with 5% CO2 at 37° C. Incubation time equaled 24 hours. For the negative control, purified water without any components of the composition was used. The number of survived cells was registered with MTT at 570 nm. The number of biological replicates was 3."}, "skin": {"tested_on": "skin", "conditions": "2% in body cleansers, 12 hours after the contact with the product; cited from earlier work"}}}
{"smiles": "O=C1c2c(O)cccc2C([C@@H]2O[C@H](CO)[C@@H](O)[C@H](O)[C@H]2O)c2cc(CO)cc(O)c21", "note": "(stereo partly drawn) [Aloin]", "values": [{"measurement": "UV radiation neutralized when applied on skin surface", "setting": "[1]", "value": "up to 30%"}]}
{"smiles": "C[N+](C)(C)CC(=O)[O-]", "note": "[Trimethylglycine, trimethylglycine]", "values": [{"measurement": "Increase of AQP3 amount in relation to the negative control, %", "setting": "Type 3 aquaporins (AQP3)", "value": "+17.92%"}, {"measurement": "Amount of AQP3", "setting": "Type 3 aquaporins (AQP3); negative control 5.58 ± 0.24", "value": "6.58 ± 1.08", "unit": "ng/mL"}, {"measurement": "Vitality of cells, % when adding the components of the composition into the cultural medium", "setting": "HaCaT cells; 0.03% (weight %) in medium", "value": "98.8 ± 3.47", "unit": "%"}, {"measurement": "Vitality of cells, % when adding the components of the composition into the cultural medium", "setting": "HaCaT cells; 0.10% (weight %) in medium", "value": "99.9 ± 1.47", "unit": "%"}, {"measurement": "Vitality of cells, % when adding the components of the composition into the cultural medium", "setting": "HaCaT cells; 0.25% (weight %) in medium", "value": "95.4 ± 2.94", "unit": "%"}, {"measurement": "Vitality of cells, % when adding the components of the composition into the cultural medium", "setting": "HaCaT cells; 1.00% (weight %) in medium", "value": "93.5 ± 1.66", "unit": "%"}, {"measurement": "Vitality of cells, % when adding the components of the composition into the cultural medium", "setting": "HaCaT cells; 10.00% (weight %) in medium", "value": "90.3 ± 6.82", "unit": "%"}]}
{"smiles": "CCCCCCCCCCCCOS(=O)(=O)[O-].[Na+]", "note": "[sodium lauryl sulfate]", "values": [{"measurement": "Transepidermal water loss", "setting": "skin", "value": 68.9, "unit": "g/m^2/h"}]}
